Data reported in PubChem BioAssay (NCI).
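Briefly, cells in 96-well plates were exposed to five compound concentrations for 48 h, and endpoints were estimated by linear interpolation. GI50: concentration for 50% inhibition of growth. Definition used: TGI = concentration required for complete inhibition of growth.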

Assays:
Test in all cases: inhibition of tumour cell growth, NCI panel, 48 h
[1] = tested on: A549 NSCLC
[2] = tested on: SW-620 colon
[3] = tested on: UO-31 renal
[4] = tested on: COLO 205 colon
[5] = tested on: HOP-92 NSCLC
[6] = tested on: OVCAR-8 ovarian
[7] = tested on: UACC-257 melanoma
[8] = tested on: UACC-62 melanoma
[9] = tested on: OVCAR-3 ovarian
[10] = tested on: SF-268 CNS

Compound	TGI [1] [µM]	TGI [2] [µM]	TGI [3] [µM]	TGI [4] [µM]	TGI [5] [µM]	TGI [6] [µM]	TGI [7] [µM]	TGI [8] [µM]	TGI [9] [µM]	TGI [10] [µM]	GI50 [1] [µM]	GI50 [2] [µM]	GI50 [3] [µM]	GI50 [4] [µM]	GI50 [5] [µM]	GI50 [6] [µM]	GI50 [7] [µM]	GI50 [8] [µM]	GI50 [9] [µM]	GI50 [10] [µM]
CC(C)C/C(CC(=O)CCC(=O)Nc1ccccc1[N+](=O)[O-])=N\NC(=O)c1cc2ccccc2cc1O	> 100	> 100	> 100	69	> 100	95.8	> 100	80.5	99.3	> 100	–	–	–	–	–	–	–	–	–	–
CCC(CO)Nc1nc2ccc(Cl)cc2c2ccccc12 (configuration not stated)	20.4	26.9	16.3	25.6	14.8	29.3	28.6	17	24.7	23.4	6.05	13.5	4.01	11.9	3.06	11.4	15.3	4.71	12.2	10.7
N#CC(c1ccc(Cl)cc1)c1cccc(C(C#N)c2ccc(Cl)cc2)n1 (configuration not stated)	> 100	> 100	42.3	43	60.6	> 100	> 100	> 100	> 100	> 100	–	–	–	–	–	–	–	–	–	–
O=C1C(=O)N(c2ccc(Cl)cc2Cl)C(=O)C(=O)C1c1nc2ccccc2s1	> 100	> 100	> 100	> 100	> 100	> 100	> 100	> 100	> 100	> 100	–	–	–	–	–	–	–	–	–	–
COc1ccc2c(c1)/C(=C/c1c(C)nc3sc(C)nn13)C(=O)N2	> 100	> 100	> 100	4.96	> 77.8	> 100	> 100	> 100	37.9	> 50.5	7.74	0.695	5.23	0.614	9.86	6.38	> 100	6.24	0.959	3.06
CSc1nc2c(c(=O)[nH]1)N=C1c3ccccc3C(=O)C1C(c1ccccc1)N2 (configuration not stated)	> 100	> 100	> 100	> 100	> 100	> 100	–	> 100	5.67	> 100	6.98	2.92	5.23	3.53	12	19.1	–	2.14	2.12	4.55
COc1cc2c(cc1OC)-c1c3cc(O)ccc3nn[n+]1CC2	> 100	> 100	–	> 100	–	> 100	–	> 100	> 100	> 100	–	–	–	–	–	–	–	–	–	–
Cc1cc(C)nc(NS(=O)(=O)c2ccc(NC(=O)c3ccc(Cl)c4c(Nc5ccc(S(=O)(=O)Nc6nc(C)cc(C)n6)cc5)c5ccccc5nc34)cc2)n1	86.1	> 100	57.4	> 100	5.93	> 100	81.6	–	> 100	> 100	–	–	–	–	–	–	–	–	–	–
Cn1c2ccccc2c2c(Nc3ccccc3)c3ccccc3nc21	–	58.3	> 100	> 100	56.5	> 100	> 100	18.6	–	53	–	17.1	51.8	59	13.9	27.3	33	4.56	–	19.2
CN(C)CC[N+]1=Nc2cccc3cccc(c23)N1	> 100	> 58	> 60.9	> 71.2	> 100	> 100	> 100	> 100	> 100	> 100	–	–	–	–	–	–	–	–	–	–
Nc1ccccc1SC(C[N+](=O)[O-])c1ccc2c(c1)OCO2 (configuration not stated)	8.68	7.74	3.32	13.7	30.2	11	3.86	25.9	12.4	20.7	–	–	–	–	–	–	–	–	–	–
CCCCC(=O)OCC(=O)[C@]1(O)Cc2c(O)c3c(c(O)c2[C@@H](OC2CC(NC(=O)C(F)(F)F)C(O)C(C)O2)C1)C(=O)c1c(OC)cccc1C3=O (some centres not stated)	3.83	> 52.4	3.45	3.69	3.88	> 39.6	8.08	1.04	20.1	4.99	–	–	–	–	–	–	–	–	–	–
COC1CCC2C(NS(=O)(=O)c3ccc(C)cc3)CCCC2O1 (configuration not stated) (tested in a mixture with another compound)	> 34.5	> 34.5	> 34.5	–	28	> 34.5	> 34.5	> 34.5	> 34.5	> 34.5	–	–	–	–	–	–	–	–	–	–
O=C(O)CCc1coc2ccc(O)cc12	> 100	> 100	–	> 100	> 100	> 100	> 100	> 100	> 100	–	–	–	–	–	–	–	–	–	–	–
CCCCCCCCCCCCCCCCCC(CCCCCCCCCCCCCCCCC)OP(=O)(O)O	> 100	> 100	> 100	> 100	> 100	> 100	> 100	> 100	> 100	> 100	–	–	–	–	–	–	–	–	–	–
CCN(CCO)CC1CCCC2CCCCC21 (configuration not stated)	> 100	> 100	> 100	> 100	> 100	> 100	> 100	> 100	> 100	> 100	–	–	–	–	–	–	–	–	–	–
O=C(CC1(O)C(=O)Nc2c(Cl)cc(Cl)cc21)c1ccc(Br)cc1Br (configuration not stated)	57.4	10.7	29.5	16.9	9.75	17.6	22.9	25.6	43.8	24	–	–	–	–	–	–	–	–	–	–
CC(=O)NNc1nc(C)c(C(=O)NNC(=O)C(=O)Nc2c(Cl)cc([N+](=O)[O-])cc2Cl)s1	> 100	78.5	87.1	> 100	56.2	> 100	68.7	86.2	52.8	86.1	–	–	–	–	–	–	–	–	–	–
Cc1ccc(C(=O)/C(=C/c2ccc([N+](=O)[O-])cc2)SCc2ccc(Cl)cc2)cc1	> 100	0.523	2.66	20.7	55.2	5.64	34.2	3.41	3.54	15.8	98.5	0.21	1.2	3.33	2.86	1.86	9.77	1.34	1.72	2.44

Compound	TGI [1] [µM]	TGI [2] [µM]	TGI [3] [µM]	TGI [4] [µM]	TGI [5] [µM]	TGI [6] [µM]	TGI [7] [µM]	TGI [8] [µM]	TGI [9] [µM]	TGI [10] [µM]	GI50 [1] [µM]	GI50 [2] [µM]	GI50 [3] [µM]	GI50 [4] [µM]	GI50 [5] [µM]	GI50 [6] [µM]	GI50 [7] [µM]	GI50 [8] [µM]	GI50 [9] [µM]	GI50 [10] [µM]
NC(Cc1c[nH]c2c(O)cccc12)C(=O)O (configuration not stated)	> 100	> 100	> 100	> 100	> 100	> 100	> 100	> 100	> 100	> 100	> 100	> 100	> 100	> 100	> 100	> 100	> 100	> 100	> 100	> 100
Cc1ccc(NC2=C(Cl)C(=O)N(Cc3ccccc3)C2=O)cc1O	> 100	> 100	> 100	> 100	–	> 100	> 100	> 100	70	> 100	42.1	39.2	82.2	49	–	26.1	39.5	24.4	20.6	31.7
CC(C)=CC(=O)C1c2cccc(O)c2C(=O)c2c(O)cc(C)cc21 (configuration not stated)	4.31	10.2	3.74	3.4	7.83	7.58	8.5	–	3.7	5.3	–	–	–	–	–	–	–	–	–	–
O=C(O)CSc1ccc([N+](=O)[O-])cc1[N+](=O)[O-]	> 100	> 100	> 100	–	> 100	> 100	> 100	> 100	> 100	> 100	–	–	–	–	–	–	–	–	–	–
Cc1nc2ccccc2c(=O)n1-c1ccccc1I	> 100	> 100	> 100	> 100	–	> 100	> 100	> 100	> 100	> 100	–	–	–	–	–	–	–	–	–	–
Clc1cc2nsnc2c(Cl)n1	> 100	27.8	39.8	31.7	33.1	–	72.3	> 100	33.4	79.4	–	–	–	–	–	–	–	–	–	–
O=C1C2C(C(=O)N1OS(=O)(=O)c1ccccc1)N(Cc1ccccc1)C(=O)N2Cc1ccccc1 (configuration not stated)	> 100	> 100	> 100	> 100	> 100	–	> 100	> 100	> 100	> 100	–	–	–	–	–	–	–	–	–	–
NNC(=O)Nc1cccnc1	> 100	> 100	> 100	> 100	> 100	> 100	> 100	> 100	> 100	–	–	–	–	–	–	–	–	–	–	–
COc1cc(CNc2cnc3cc(N)cc(N)c3n2)cc(OC)c1	> 100	64.2	> 100	–	25.9	57.6	–	–	48.3	37.7	33	24.6	38.2	–	10.3	22.6	–	–	19.6	15.8
Cc1ccc(N=Nc2ccc(N(CCC#N)CCC#N)cc2C)c(Br)c1	> 100	> 100	> 100	> 100	–	> 100	> 100	> 100	> 100	> 100	–	–	–	–	–	–	–	–	–	–
O=C(COc1ccc(Br)cc1Br)N1N=C(c2ccc([N+](=O)[O-])o2)CC1(O)c1ccccc1 (configuration not stated)	72.2	33.3	21.3	7.05	–	36.7	45.4	18.7	20.2	36	–	–	–	–	–	–	–	–	–	–
O=S1(=O)c2ccccc2NC(c2ccc3ccccc3c2)CC1c1ccccc1F (configuration not stated)	> 100	> 100	> 100	> 100	–	> 100	> 100	> 100	> 100	> 100	–	–	–	–	–	–	–	–	–	–
CC1(C)CCc2c(c3c(c4c(=O)c(O)c(-c5ccc(O)cc5)oc24)OC(C)(C)CC3)O1	> 100	> 100	> 100	> 100	38.2	> 100	–	> 100	> 100	> 100	> 100	> 100	> 100	> 100	14.6	36.3	–	> 100	49.9	30.5
O=CC[C@H]1C(=O)C[C@@H]2CCC[C@@H]21	> 100	> 100	–	> 100	> 100	> 100	> 100	> 100	> 100	> 100	–	–	–	–	–	–	–	–	–	–
CCCCCCCCCCCOc1ccc(C(=O)C(=O)c2ccc(OCCCCCCCCCCC)c(OCCCCCCCCCCC)c2)cc1OCCCCCCCCCCC	> 100	> 100	> 100	> 100	–	> 100	> 100	> 100	> 100	> 100	–	–	–	–	–	–	–	–	–	–
COC(=O)CC1CCN(C#N)CC1CC[N+](=O)[O-] (configuration not stated)	> 100	> 100	> 100	> 100	–	> 100	> 100	> 100	> 100	> 100	–	–	–	–	–	–	–	–	–	–
COc1ccc2c(C3=C(c4cn(C)c5ccccc45)C(=O)NC3=O)cn(C)c2c1	> 25	> 25	> 25	0.323	–	> 25	> 25	> 25	1.03	> 25	0.135	0.104	3.69	0.0917	–	0.15	1.61	0.137	0.0841	0.292
CCOC(=O)CN1C(=O)c2cccc3cc([N+](=O)[O-])cc(c23)C1=O	26.6	2.99	27	–	6.21	3.43	7.73	5.2	14.9	11.1	–	–	–	–	–	–	–	–	–	–
